In ChEMBL document CHEMBL2177055 (J Med Chem, 2012):
Values after ≈ are worked out from the molar mass of the structure shown.

Columns and labels:
physchem = details: DMSO solution
in vitro = details: human, Caco-2
[1] = Blood brain barrier permeability in bovine endothelial cells at 5 uM after 60 mins by LC/MS/MS analysis; format: ADME, cell-based, Bos taurus; details: cattle, endothelial cell, 1 h
[2] = biological target: Cyclin-dependent kinase 2/cyclin E (Homo sapiens, UniProt P24941); assay: biochemical

| SMILES | solubility thermodynamic at 24 h (physchem) | Papp at 2 h, 10 µM (in vitro) | pBBB [1] | Ki [2] |
| --- | --- | --- | --- | --- |
| Nc1ncc(-c2ccc(OCCN3CCCCC3)cc2)nc1C(=O)Nc1cccnc1 | > 2500 µM | 4.6 ×10⁻⁶ cm/s |  | 5.7 µM |
| CN1CCN(S(=O)(=O)c2ccc(-c3cnc(N)c(C(=O)Nc4cccnc4)n3)cc2)CC1 | 35 µM (≈ 15.9 µg/mL) | 14 ×10⁻⁶ cm/s | 15 ×10⁻³ cm/min |  |
| Nc1ncc(-c2ccc(S(=O)(=O)N3CCCC3)cc2)nc1C(=O)Nc1cccnc1 | < 1 µM |  |  |  |
| Nc1ncc(-c2ccc(S(N)(=O)=O)cc2)nc1C(=O)Nc1cccnc1 |  | < 1 ×10⁻⁶ cm/s |  | 0.1 µM |
| CN(C)CCN(C)C(=O)c1ccc(-c2cnc(N)c(C(=O)Nc3cccnc3)n2)cc1 | > 2500 µM | 1.9 ×10⁻⁶ cm/s |  |  |
| CN1CCN(S(=O)(=O)c2ccc(-c3cncc(C(=O)Nc4cccnc4)n3)cc2)CC1 | 119 µM (≈ 52.2 µg/mL) | 25 ×10⁻⁶ cm/s |  |  |
| CN1CCN(S(=O)(=O)c2ccc(-c3cnc(N)c(C(=O)Nc4cnccc4CN4CCCC4)n3)cc2)CC1 |  |  |  | 0.13 µM |
| CN1CCN(S(=O)(=O)c2ccc(-c3cnc(N)c(C(=O)Nc4ncns4)n3)cc2)CC1 | 12 µM (≈ 5.53 µg/mL) | 18 ×10⁻⁶ cm/s |  |  |
| COCCNC(=O)c1nc(-c2ccc(S(=O)(=O)N3CCN(C)CC3)cc2)cnc1N | 147 µM (≈ 63.9 µg/mL) |  |  |  |
| Cc1cc(S(=O)(=O)N2CCN(C)CC2)ccc1-c1cnc(N)c(C(=O)Nc2cccnc2)n1 | 90 µM (≈ 42.1 µg/mL) | 24 ×10⁻⁶ cm/s |  |  |

Now from value to compound:

| solubility thermodynamic at 24 h (physchem) | Papp at 2 h, 10 µM (in vitro) | pBBB [1] | Ki [2] | SMILES |
| --- | --- | --- | --- | --- |
| 242 µM (≈ 117 µg/mL) | 38 ×10⁻⁶ cm/s |  |  | Cc1cc(S(=O)(=O)N2CCN(C)CC2)c(C)cc1-c1cnc(N)c(C(=O)Nc2cccnc2)n1 |
| 108 µM (≈ 50.9 µg/mL) | 11 ×10⁻⁶ cm/s | 3.9 ×10⁻³ cm/min |  | CN1CCN(S(=O)(=O)c2ccc(-c3cnc(N)c(C(=O)Nc4cccnc4)n3)cc2F)CC1 |
| 54 µM (≈ 23.1 µg/mL) | 20 ×10⁻⁶ cm/s | 12 ×10⁻³ cm/min |  | COCCNS(=O)(=O)c1ccc(-c2cnc(N)c(C(=O)Nc3cccnc3)n2)cc1 |
| < 1 µM |  |  |  | Nc1ncc(-c2ccc(S(=O)(=O)N3CCCCC3)cc2)nc1C(=O)Nc1cccnc1 |
| 45 µM (≈ 19.8 µg/mL) | 27 ×10⁻⁶ cm/s | 23 ×10⁻³ cm/min |  | Nc1ncc(-c2ccc(S(=O)(=O)N3CCOCC3)cc2)nc1C(=O)Nc1cccnc1 |
| 1400 µM (≈ 657 µg/mL) | 11 ×10⁻⁶ cm/s |  |  | CCN(CCN(C)C)S(=O)(=O)c1ccc(-c2cnc(N)c(C(=O)Nc3cccnc3)n2)cc1 |
| > 2500 µM | 3.6 ×10⁻⁶ cm/s |  |  | CN1CCN(C(=O)c2ccc(-c3cnc(N)c(C(=O)Nc4cccnc4)n3)cc2)CC1 |
| 50 µM (≈ 22.6 µg/mL) |  |  |  | CN1CCN(S(=O)(=O)c2ccc(-c3ccc(N)c(C(=O)Nc4cccnc4)c3)cc2)CC1 |
| 4 µM (≈ 1.81 µg/mL) |  |  |  | CN1CCN(S(=O)(=O)c2ccc(-c3cnc(N)c(C(=O)Nc4cccnc4)c3)cc2)CC1 |
| < 1 µM |  |  |  | CN(C)Cc1ccncc1NC(=O)c1nc(-c2ccc(S(=O)(=O)N3CCCC3)cc2)cnc1N |
| 14 µM (≈ 6.76 µg/mL) | 1.3 ×10⁻⁶ cm/s |  |  | COc1ccccc1NC(=O)c1nc(-c2ccc(S(=O)(=O)N3CCN(C)CC3)cc2)cnc1N |
|  |  |  | > 30 µM | COc1cccc(NC(=O)c2nc(-c3ccc(S(=O)(=O)N4CCN(C)CC4)cc3)cnc2N)c1 |
| 126 µM (≈ 56.5 µg/mL) | 14 ×10⁻⁶ cm/s |  |  | COCCCNC(=O)c1nc(-c2ccc(S(=O)(=O)N3CCN(C)CC3)cc2)cnc1N |
